Data: US6559102B1, “Substituted 3-aryl-pyrazoles” (Bayer Aktiengesellschaft, priority 1998, dated 2003)

Columns and labels:
[1] = log P determination by HPLC, reversed-phase column (EEC Directive 79/831 Annex V.A8); type: physicochemical; conditions: reversed-phase C 18, 43° C., acidic range: 0.1% aqueous phosphoric acid, acetonitrile, gradient 10% to 90% (data labelled a))
Experimental: The log P values given in Table 1 were determined in accordance with the EEC Directive 79/831 Annex V.A8 by HPLC (High Performance Liquid Chromatography) using a reversed-phase column (C 18). Temperature: 43° C. (a) Mobile phases for the determination in the acidic range: 0.1% aqueous phosphoric acid, acetonitrile; linear gradient from 10% acetonitrile to 90% acetonitrile—the corresponding data are labelled a) in Table 1. (b) Mobile phases for the determination in the neutral range: 0.01 molar aqueous phosphate buffer solution, acetonitrile; linear gradient from 10% acetonitrile to 90% acetonitrile—the corresponding data are labelled b) in Table 1. The calibration was carried out using unbranched alkan-2-ones (having from 3 to 16 carbon atoms) whose log P values are known (determination of the log P values by the retention times by linear interpolation between two successive alkanones).

weeds [2] = test: Post-emergence test (Example B), activity against weeds; type: in vivo; conditions: test plants 5-15 cm sprayed, rated after three weeks
Experimental: Post-emergence Test Solvent: 5 parts by weight of acetone Emulsifier: 1 part by weight of alkylaryl polyglycol ether To produce a suitable preparation of active compound, 1 part by weight of active compound is mixed with the stated amount of solvent, the stated amount of emulsifier is added and the concentrate is diluted with water to the desired concentration. Test plants which have a height of 5-15 cm are sprayed with the preparation of the active compound in such a way as to apply the particular amounts of active compound desired per unit area. The concentration of the spray liquor is chosen so that the amounts of active compound desired in each case are applied in 1000 l of water/ha. After three weeks, the degree of damage to the plants is rated in % damage in comparison with the development of the untreated control. The figures denote: 0%=no effect (like untreated control) 100%=total destruction

weeds [3] = test: Pre-emergence test (Example A), activity against weeds; type: in vivo; conditions: soil sprayed about 24 hours after sowing, rated after three weeks
Experimental: (§1) Pre-emergence Test Solvent: 5 parts by weight of acetone Emulsifier: 1 part by weight of alkylaryl polyglycol ether To produce a suitable preparation of active compound, 1 part by weight of active compound is mixed with the stated amount of solvent, the stated amount of emulsifier is added and the concentrate is diluted with water to the desired concentration. Seeds of the test plants are sown in normal soil. After approximately 24 hours, the soil is sprayed with the preparation of the active compound in such a way as to apply the particular amount of active compound desired per unit area. The concentration of the spray liquor is chosen so that the amount of active compound desired in each case is applied in 1000 liter of water per hectare. After three weeks, the degree of damage to the plants is rated in % damage in comparison with the development of the untreated control. The figures denote: [table]

[4] = tested on: crop plants, such as, for example, barley, wheat, maize and soya; test: Pre-emergence test (Example A), compatibility with crop plants; type: in vivo; conditions: rated after three weeks
Experimental: as §1

log P [1]	Compound	other results
logP: 4.38^a)	CN(C)c1cccc(Oc2cc(-c3nn(C)c(OC(F)F)c3Cl)c(F)cc2C#N)c1 [Example 116]	–
logP: 3.20^a)	CN(C)C(=O)c1ccccc1Oc1cc(-c2nn(C)c(OC(F)F)c2Cl)c(F)cc1C#N [Example 115]	–
logP: 4.13^a)	Cn1nc(-c2cc(Oc3cccc(F)c3F)c(C#N)cc2F)c(Cl)c1OC(F)F [Example 117]	–
logP: 4.72^a)	Cn1nc(-c2cc(Oc3cccc(OC(F)(F)F)c3)c(C#N)cc2F)c(Cl)c1OC(F)F [Example 123]	–
logP: 4.59^a)	Cc1ccc(Cl)c(Oc2cc(-c3nn(C)c(OC(F)F)c3Cl)c(F)cc2C#N)c1 [Example 125]	–
logP: 4.40^a)	CCN(CC)c1cccc(Oc2cc(-c3nn(C)c(OC(F)F)c3Cl)c(F)cc2C#N)c1 [Example 122]	–
logP: 3.72^a)	COc1ccc(Oc2cc(-c3nn(C)c(OC(F)F)c3Cl)c(F)cc2C#N)cc1OC [Example 126]	–
logP: 4.55^a)	CC(C)Oc1ccccc1Oc1cc(-c2nn(C)c(OC(F)F)c2Cl)c(F)cc1C#N [Example 119]	–
logP: 3.98^a)	COc1cccc(Oc2cc(-c3nn(C)c(OC(F)F)c3Cl)c(F)cc2C#N)c1OC [Example 124]	–
logP: 2.03^a)	CN(C)Cc1ccccc1Oc1cc(-c2nn(C)c(OC(F)F)c2Cl)c(F)cc1C#N [Example 121]	–
logP: 4.74^a)	Cc1ccc(Oc2cc(-c3nn(C)c(OC(F)F)c3Cl)c(F)cc2C#N)cc1C [Example 120]	–
logP: 4.89^a)	Cn1nc(-c2cc(Oc3ccc(Cl)c(Cl)c3)c(C#N)cc2F)c(Cl)c1OC(F)F [Example 118]	–

Continued, compound first:

Compound	log P [1]	other results
Cc1ccccc1Oc1cc(-c2nn(C)c(OC(F)F)c2Cl)c(F)cc1C#N [Example 56]	logP: 4.40^a)	–
Cn1nc(-c2cc(Oc3ccc(Cl)cc3)c(C#N)cc2F)c(Cl)c1OC(F)F [Example 69]	logP: 4.49^a)	–
CCOC(=O)C(C)Oc1ccc(Oc2cc(-c3nn(C)c(OC(F)F)c3Br)c(F)cc2C#N)cc1 (stereo not shown) [Example 1, ethyl 2-[4-[2-cyano-5-[4-bromo-5-(difluoromethoxy)-1-methyl-1H-pyrazo-3-yl]-4-fluoro-phenoxy]-phenoxy]-propionate]	–	melting point: 60 °C; activity against weeds (degree of damage) (weeds [2]): strong activity against weeds; activity against weeds (degree of damage) (weeds [3]): strong activity against weeds; compatibility with crop plants [4]: good compatibility with crop plants
Cn1nc(-c2cc(Oc3ccc(F)cc3)c(C#N)cc2F)c(Cl)c1OC(F)F [Example 72]	logP: 4.13^a)	–
Cn1nc(-c2cc(Oc3ccccc3Cl)c(C#N)cc2F)c(Cl)c1OC(F)F [Example 67]	logP: 4.28^a)	–
COc1cccc(Oc2cc(-c3nn(C)c(OC(F)F)c3Br)c(F)cc2C#N)c1OC [Example 112]	logP: 3.80^a)	–
COc1cccc(Oc2cc(-c3nn(C)c(OC(F)F)c3Cl)c(F)cc2C#N)c1 [Example 60]	logP: 4.13^a)	–
Cn1nc(-c2cc(Oc3cccc(C(F)(F)F)c3)c(C#N)cc2F)c(Cl)c1OC(F)F [Example 51]	logP: 4.55^a)	–
Cn1nc(-c2cc(Oc3cccc(F)c3)c(C#N)cc2F)c(Cl)c1OC(F)F [Example 71]	logP: 4.17^a)	–
COc1ccc(Oc2cc(-c3nn(C)c(OC(F)F)c3Cl)c(F)cc2C#N)cc1 [Example 61]	logP: 4.05^a)	–
Cc1ccc(Oc2cc(-c3nn(C)c(OC(F)F)c3Cl)c(F)cc2C#N)cc1 [Example 58]	logP: 4.45^a)	–
COc1ccccc1Oc1cc(-c2nn(C)c(OC(F)F)c2Cl)c(F)cc1C#N [Example 59]	logP: 3.98^a)	–
CC(=O)c1ccc(Oc2cc(-c3nn(C)c(OC(F)F)c3Cl)c(F)cc2C#N)cc1 [Example 84]	logP: 3.66^a)	–
Cn1nc(-c2cc(Oc3ccccc3)c(C#N)cc2F)c(Cl)c1C(F)(F)F [Example 2, 4-chloro-3-(4-cyano-2-fluoro-5-phenoxyphenyl)-1-methyl-5-trifluoromethyl-1H-pyrazole]	–	melting point: 123 °C
Cn1nc(-c2cc(Oc3cccc(Cl)c3)c(C#N)cc2F)c(Cl)c1OC(F)F [Example 68]	logP: 4.49^a)	–
Cn1nc(-c2cc(Oc3ccccc3F)c(C#N)cc2F)c(Cl)c1OC(F)F [Example 70]	logP: 4.02^a)	–
Cn1nc(-c2cc(Oc3ccc(OC(F)(F)F)cc3)c(C#N)cc2F)c(Cl)c1OC(F)F [Example 76]	logP: 4.70^a)	–
Cc1cccc(Oc2cc(-c3nn(C)c(OC(F)F)c3Cl)c(F)cc2C#N)c1 [Example 57]	logP: 4.43^a)	–
Cn1nc(-c2cc(Oc3ccc(C(F)(F)F)cc3)c(C#N)cc2F)c(Cl)c1OC(F)F [Example 52]	logP: 4.59^a)	–
